Entries after “also recorded” stand apart in the source; their conditions may differ.
Legend:
[1] = tested on: normal human epidermic keratinocytes; test: cytotoxic effect: percentage of proteins remaining in keratinocytes after 4 hours of incubation; assay type: cell-based; details: 4 hours incubation
Procedure: For the examination of the toxicity, normal human epidermic keratinocytes were used which were taken from epidermis samples; they consist especially in keratinocytes isolated from the remains of an operation of an abdominal plasty carried out on a person (patient No. 10020).
These keratinocytes were cultivated at 37° C. in a culture medium intended for keratinocytes or MCK, i.e. the one which is marketed under the designation “SFM defined-keratinocyte medium” by the company GIBCO under a humid atmosphere containing 5% of CO2 until confluence of the monolayers.
These six products were incubated during 4 hours in the cultures of the keratinocytes.
Before the incubation, the cells, i.e. the keratinocytes, were rinsed with the tested products in order to eliminate any trace of culture medium.
The saline solutions J, I, H, and K and the physiological serum were used without dilution.
The dexamethasone has been tested at 10 μM in the medium MCK.
The cultures of keratinocytes were incubated in the presence of the six products during 4 hours at 37° C., under a humid atmosphere containing 5% of CO2.
The control cultures, incubated in the medium MCK in the absence of the six products, were carried out in parallel.
All these trials were carried out three times. […]

interleukine IL-8 = test: release of interleukine IL-8 in cultures of keratinocytes under the influence of MCK medium; assay type: cell-based, human; details: 4 hours incubation; saline solutions and physiological serum without dilution, dexamethasone 10 μM in MCK; control MCK = 100
Source text: Then the ability of the hypoosmotic saline solutions used according to the invention to prevent and to limit the release under the influence of certain diseases or certain pro-inflammatory agents of the chemical mediators responsible for the starting of the cutaneous inflammatory phenomena has been examined.
The tested chemical mediator was interleukine IL-8.
The pro-inflammatory agent was consisting of the MCK culture medium which appears to be at the origin of a strong release of interleukine IL-8 in cultures of keratinocytes.
The procedure was similar to that used in the above disclosed tests concerning the estimation of the cytotoxicity of the various tested products.
These products were the same.
The duration of the incubation was also equal to 4 hours.
Under the influence of the MCK medium, the release of interleukine IL-8 was 100 pg/mg of proteins; in that same medium determination has been carried out of the amounts of interleukine IL-8 released in the presence of the six tested products, i.e. on the one hand, the products J, I, H, K as well as physiological serum which were used without dilution and, on the other hand, dexamethasone which has been used at the rate of 10 μM in the MCK medium.

C[C@@H]1C[C@H]2[C@@H]3CCC4=CC(=O)C=C[C@]4(C)[C@@]3(F)[C@@H](O)C[C@]2(C)[C@@]1(O)C(=O)CO [Dexamethasone, dexamethasone]
cytotoxic effect with respect to keratinocytes (in words) [1]: not cytotoxic; also recorded: very few cytotoxic
amounts of interleukine IL-8 released (interleukine IL-8): 74 pg of IL-8/mg of proteins

Source: US6855325B1, “Use of hypo-osmotic saline solutions and medicine based on said solutions” (Laboratoires GOEMAR S.A., priority 1999, dated 2005)
